# Test system: male rat (Sprague Dawley Crl:SD)
# Test: In vivo MRI imaging of 2 and 6, T2-weighted scans
# Conditions: for T2-weighted MRI signal intensity, liver: baseline (−10 min) 965; for T2-weighted MRI signal intensity, lean muscle: baseline (−10 min) 2673; for T2-weighted MRI signal intensity, renal cortex: baseline (−10 min) 4759; for T2-weighted MRI signal intensity, renal medulla: baseline (−10 min) 6454; for T2-weighted MRI signal intensity, bladder: baseline (−10 min) 12921; for T2-weighted MRI signal intensity, fat: baseline (−10 min) 14834
# Experimental: Compound 1 (aq., 12.5 mM) was injected intravenously into 2 male rats (Sprague Dawley Crl:SD, 312-338 g) at a dosage of 0.02 mmol/kg following anaesthesia with 5% isoflurane. Compound 2 (aq., 6.25 mM) was injected intravenously into 1 male rat (Sprague Dawley Crl:SD, 349 g) at a dosage of 0.01 mmol/kg following anaesthesia with 5% isoflurane. Compound 6 (aq., 6.25 mM) was injected intravenously into 1 male rat (Sprague Dawley Crl:SD, 341 g) at a dosage of 0.01 mmol/kg following anaesthesia with 5% isoflurane. Anesthesia was maintained at 2-2.5% isoflurane through a nose cone for the duration of the scans. Fast-spin-echo images were collected for 45 mins. immediately post-injection. For compound 1, the DT1-weighted RARE (Rapid Acquisition Relaxation Enhancement) scans were acquired with an echo time of 10 ms, and a repetition time=respiratory cycle duration (˜1100 ms). Both T1- and T2-weighted scans were collected on compounds 2 and 6.
# The in vivo contrast potential of compounds 1, 2 and 6 were studied via the collection of fast-spin-echo images for 30-45 minutes immediately following injection of an aqueous solution of each complex. The dosage chosen for 1 was 0.02 mmol/kg (c=[…]) while the dosage chosen for 2 and 6 was 0.01 mmol/kg (c=6.25 mM). Predominantly T1-weighted scans with some T2-weighting were performed on two rats injected with 1.
# Both T1- and T2-weighted scans were performed on two rats injected with 2 and its dimeric analogue 6.
# [1] = 8 min after injection of 2, 0.01 mmol/kg iv
# [2] = 22 min after injection of 2, 0.01 mmol/kg iv
# [3] = 37 min after injection of 2, 0.01 mmol/kg iv
# [4] = injection of 2, 0.01 mmol/kg iv, first 40 min
smiles,measurement,setting,value
"CC1=NCCOCCOCCN=C(C)c2cccc1n2.O.O.[Cl-].[Cl-].[Mn+2] [Compound 2, [MnL2Cl2].2H2O]","T2-weighted MRI signal intensity, liver",[1],788 arbitrary units of voxel intensity
same,"T2-weighted MRI signal intensity, lean muscle",[1],2386 arbitrary units of voxel intensity
same,"T2-weighted MRI signal intensity, renal cortex",[1],3367 arbitrary units of voxel intensity
same,"T2-weighted MRI signal intensity, renal medulla",[1],5342 arbitrary units of voxel intensity
same,"T2-weighted MRI signal intensity, bladder",[1],7977 arbitrary units of voxel intensity
same,"T2-weighted MRI signal intensity, fat",[1],14550 arbitrary units of voxel intensity
same,"T2-weighted MRI signal intensity, liver",[2],577 arbitrary units of voxel intensity
same,"T2-weighted MRI signal intensity, lean muscle",[2],2451 arbitrary units of voxel intensity
same,"T2-weighted MRI signal intensity, renal cortex",[2],3307 arbitrary units of voxel intensity
same,"T2-weighted MRI signal intensity, renal medulla",[2],5306 arbitrary units of voxel intensity
same,"T2-weighted MRI signal intensity, bladder",[2],667 arbitrary units of voxel intensity
same,"T2-weighted MRI signal intensity, fat",[2],12923 arbitrary units of voxel intensity
same,"T2-weighted MRI signal intensity, liver",[3],400 arbitrary units of voxel intensity
same,"T2-weighted MRI signal intensity, lean muscle",[3],2377 arbitrary units of voxel intensity
same,"T2-weighted MRI signal intensity, renal cortex",[3],3034 arbitrary units of voxel intensity
same,"T2-weighted MRI signal intensity, renal medulla",[3],4215 arbitrary units of voxel intensity
same,"T2-weighted MRI signal intensity, bladder",[3],512 arbitrary units of voxel intensity
same,"T2-weighted MRI signal intensity, fat",[3],13440 arbitrary units of voxel intensity
same,"Max. intensity change, T2-weighted, bladder",[4],−96%
same,"Max. intensity change, T2-weighted, fat",[4],−13%
same,"Max. intensity change, T2-weighted, lean muscle",[4],−11%
same,"Max. intensity change, T2-weighted, liver",[4],−59%
same,"Max. intensity change, T2-weighted, renal cortex",[4],−36%
same,"Max. intensity change, T2-weighted, renal medulla",[4],−35%
